Assay results from patent US7601834B2, “Compositions and methods of reducing side effects and toxicity of methotrexate when given as orotate derivatives” (SavviPharm Inc, priority 2005, dated 2009).
Where two headings read alike, the source gives them in different places. Blank lines part the entries; values can stand above or below the compound they belong to.

Legend:
[1] = Pharmacokinetic analysis and oral bioavailability in rats; format: in vivo, male Spagrue-Dawley rats; conditions: rat; for AUC: estimated for infinity; for half-life: read-out: Elim Half-Life (converted)
Experimental: A PK study was done in rats to determine the PK profile and oral bioavailability of methotrexate and compared this to the orotate salt of methotrexate. This was done in male Spagrue-Dawley rats. This compound was administered intravenously (IV; 10 mg/kg; for methotrexate and 15.7 mg/kg for methotrexate orotate 1 mL/kg; vehicle 1% NaHCO3 in 0.9% saline) or via oral gavage (PO; 100 mg/kg methotrexate; 157 mg/kg methotrexate orotate; vehicle 1% NaHCO3 in 0.9% saline) and the plasma levels of compound in the plasma were determined at specified times. By calculating the ratio of the area under the curve for the compound concentrations (estimated for infinity as is typically done) for PO vs IV, percent oral bioavailability can be determined. Of course normalization for the different doses given IV vs PO was taken into account for determination of oral bioavailability.

[2] = test system: DU-145 human prostate tumor xenografts
Experimental: The purpose of the experiment was to evaluate the antitumor efficacy of methotrexate (MTX) and its orotate derivative (MTX orotate) against subcutaneously (SC) implanted DU=145 human prostate tumor xenografts in male athymic NCr-nu/nu mice.
Drug formulation—2.7 mg/mL solution of MTX (Sigma-Aldrich, catalog no. M9929, lot no. 114K1572 used on days 15 and 19, and catalog no. A6770, lot no. 21H0324 used on days 19, 23 and 35) was formulated fresh on each day of treatment in 2% sodium bicarbonate in water for injection (WFI). The 2.7 mg/mL solution was diluted with sodium bicarbonate in WFI to 1.8 and 1.2 mg/mL.
A 4.25 mg/mL solution of MTX orotate was formulated fresh on each day of treatment in 2% bicarbonate in WFI to 2.83 and 1.89 mg/mL. Control group was treated with 2% sodium bicarbonate in WFI. Both compounds and the vehicle were administered to mice by exact individual animal's body weight on each day of treatment with the injection volume being 0.1 mL/10 g of body weight.
Seven groups of 10 mice per group were injected intraperitoneally (ip) once every four days for a total of 3 injections (q4d×3, Days 15, 19, 23 and 35) as follows: Group 1—2% sodium bicarbonate, Groups 2, 3 and 4 with MTX at 27, 18, and 12 mg/kg/dose, respectively. Groups 5, 6, and 7 were treated with MTX orotate at dosages 42.5, 28.3 and 18.9 mg/kg/dose respectively (based on MW of MTX=454.4 and MW of MTX orotate=714.7).
Tumors were measured and volume determined using formula L×W^2/2=mm^3; and weight calculated assuming 1 mm^3=1 mg. The study was terminated 47 days after tumor implantation

[3] = in vivo; cited from earlier work
[4] = IV, 15.7 mg/kg methotrexate orotate
[5] = PO, 157 mg/kg methotrexate orotate
[6] = male, Sprague-Dawley, plasma, IV, 10 mg/kg methotrexate
[7] = male, Sprague-Dawley, plasma, PO, 100 mg/kg methotrexate

- Apparent volume of distribution and plasma clearance rate relative to methotrexate ([1]; IV): higher
- Area under the curve (AUC) relative to methotrexate ([1]; IV): slightly lower
- Cl [1, 4]: 263.08 ± 17.08 mL/min/kg
- Cmax plasma [1, 4]: 2843 ± 121 ng/mL
- Elim Half-Life [1, 4]: 28.2 ± 0 min
- Tmax [1, 4]: 6 ± 0 min
- Vd [1, 4]: 10.804 ± 0.733 L/kg
- AUC [1, 4]: 792 ± 62 ng·mL·h
- Elimination half-life relative to methotrexate ([1]; PO): shorter
- Rate of getting into the plasma relative to methotrexate ([1]; PO): somewhat slower
- % bioavailability (oral) ([1]; PO 157 mg/kg vs IV 15.7 mg/kg methotrexate orotate, dose-normalized AUC ratio): 14%
- Cl [1, 5]: 3233.05 ± 518.18 mL/min/kg
- Cmax plasma [1, 5]: 59 ± 20 ng/mL
- Elim Half-Life [1, 5]: 1060 ± 480 min
- Tmax [1, 5]: 96 ± 24 min
- Vd [1, 5]: 3345.18 ± 472.947 L/kg
- AUC [1, 5]: 1140 ± 390 ng·mL·h
SMILES: CN(Cc1cnc2nc(N)nc(N)c2n1)c1ccc(C(=O)NC(CCC(=O)O)C(=O)[O-])cc1.O=C(O)c1cc(=O)[nH]c(=O)[nH]1.[Na+] (stereo not drawn) [Methotrexate Orotate, sodium methotrexate orotate]
- Tumor weight - inhibition of growth of DU-145 xenografts ([2]; MTX orotate highest dose (42.5 mg/kg/dose) ip q4d): marginal inhibition
- Tumor weight - tumor inhibition ([2]; MTX orotate two low doses (28.3 and 18.9 mg/kg/dose) ip q4d, SC DU-145 xenografts): no effect
- Tumor growth compared with MTX ([2]; ip, equivalent dosages, SC DU-145 xenografts): no significant difference

- Cmax [1, 6]: 3780 ± 636 ng/mL
- clearance [1, 6]: 157 mL/min/kg
- half-life [1, 6]: 26.4 ± 0.6 min
- Tmax ([1]; male, Sprague-Dawley, plasma, IV, 10 mg/kg methotrexate, read-out: Tmax): 6 min
- Vd ([1]; male, Sprague-Dawley, plasma, IV, 10 mg/kg methotrexate, read-out: Vd): 6.12 ± 0.671 L/kg
- bioavailability ([1]; male, Sprague-Dawley, plasma, PO 100 mg/kg vs IV 10 mg/kg methotrexate, dose-normalized AUC ratio): 6%
- Cmax [1, 7]: 51 ± 12 ng/mL
- half-life [1, 7]: 1880 ± 924 min
- Tmax ([1]; male, Sprague-Dawley, plasma, PO, 100 mg/kg methotrexate, read-out: Tmax): 54 ± 36 min
- AUC ([1]; IV, 10 mg/kg methotrexate): 1151 ± 142 ng·mL·h
- Cl ([1]; PO, 100 mg/kg methotrexate): 2537.12 ± 257.27 mL/min/kg
- Vd ([1]; PO, 100 mg/kg methotrexate): 6811.662 ± 3415.946 L/kg
- AUC ([1]; PO, 100 mg/kg methotrexate): 671 ± 70 ng·mL·h
SMILES: CN(Cc1cnc2nc(N)nc(N)c2n1)c1ccc(C(=O)N[C@@H](CCC(=O)O)C(=O)O)cc1 [Methotrexate, methotrexate]
- Tumor weight - tumor inhibition ([2]; MTX 27, 18 and 12 mg/kg/dose ip q4d, SC DU-145 xenografts): no effect
- Bound to plasma proteins [3]: approximately 50%
- Elimination from plasma, gamma half life [3]: 1620 min
